Tests used:
Assay type in all cases: functional
[1] = system: Pseudomonas aeruginosa; test: Antibiotic adjuvant activity against multi-drug resistant Pseudomonas aeruginosa clinical isolate PA259 assessed as fractional inhibitory concentration index incubated for 18 hrs in presence of doxycycline by two fold broth microdilution checkerboard assay
[2] = system: Escherichia coli; test: Antibiotic adjuvant activity against multi-drug resistant Escherichia coli clinical isolate 94474 assessed as rifampicin MIC incubated for 18 hrs in presence of Rifampicin by two fold broth microdilution checkerboard assay
[3] = system: Pseudomonas aeruginosa; test: Antibacterial activity against multi-drug resistant Pseudomonas aeruginosa clinical isolate 114228 assessed as inhibition of bacterial growth incubated for 18 hrs by two fold broth microdilution assay
[4] = system: Escherichia coli; test: Antibiotic adjuvant activity against multi-drug resistant Escherichia coli clinical isolate 94393 assessed as rifampicin MIC incubated for 18 hrs in presence of Rifampicin by two fold broth microdilution checkerboard assay
[5] = system: Pseudomonas aeruginosa; test: Antibiotic adjuvant activity against multi-drug resistant Pseudomonas aeruginosa clinical isolate PA114228 assessed as fractional inhibitory concentration index incubated for 18 hrs in presence of doxycycline by two fold broth microdilution checkerboard assay
[6] = system: Pseudomonas aeruginosa; test: Antibiotic adjuvant activity against multi-drug resistant Pseudomonas aeruginosa clinical isolate PA101243 assessed as doxycycline MIC incubated for 18 hrs in presence of doxycycline by two fold broth microdilution checkerboard assay
[7] = system: Acinetobacter baumannii; test: Antibiotic adjuvant activity against multi-drug resistant Acinetobacter baumannii clinical isolate 92247 assessed as fractional inhibitory concentration index incubated for 18 hrs in presence of Rifampicin by two fold broth microdilution checkerboard assay
[8] = system: Escherichia coli; test: Antibiotic adjuvant activity against multi-drug resistant Escherichia coli clinical isolate 94474 assessed as fold potentiation incubated for 18 hrs in presence of Rifampicin by two fold broth microdilution checkerboard assay
[9] = system: Staphylococcus aureus; test: Antibiotic adjuvant activity against methicilin-resistant Staphylococcus aureus assessed as fold potentiation incubated for 18 hrs in presence of rifampicin by two fold broth microdilution checkerboard assay
[10] = system: Pseudomonas aeruginosa; test: Antibiotic adjuvant activity against multi-drug resistant Pseudomonas aeruginosa clinical isolate PA259 assessed as inhibition of bacterial growth incubated for 18 hrs in presence of minocycline by two fold broth microdilution checkerboard assay
[11] = system: Acinetobacter baumannii; test: Antibacterial activity against Acinetobacter baumannii ATCC 17978 assessed as inhibition of bacterial growth incubated for 18 hrs by two fold broth microdilution assay
[12] = system: Pseudomonas aeruginosa; test: Antibiotic adjuvant activity against Pseudomonas aeruginosa PAO1 assessed as fold potentiation incubated for 18 hrs in presence of rifampicin and CAMHB Mg2+ media by two fold broth microdilution checkerboard assay
[13] = system: Pseudomonas aeruginosa; test: Antibiotic adjuvant activity against Pseudomonas aeruginosa PAO1 assessed as fold potentiation incubated for 18 hrs in presence of minocycline by two fold broth microdilution checkerboard assay
[14] = system: Pseudomonas aeruginosa; test: Antibiotic adjuvant activity against multi-drug resistant Pseudomonas aeruginosa clinical isolate PA262 assessed as fractional inhibitory concentration index incubated for 18 hrs in presence of Rifampicin by two fold broth microdilution checkerboard assay
[15] = system: Escherichia coli; test: Antibiotic adjuvant activity against multi-drug resistant Escherichia coli clinical isolate EC107115 assessed as minocycline MIC incubated for 18 hrs in presence of minocycline by two fold broth microdilution checkerboard assay
[16] = system: Pseudomonas aeruginosa; test: Antibiotic adjuvant activity against multi-drug resistant Pseudomonas aeruginosa clinical isolate PA264 assessed as fractional inhibitory concentration index incubated for 18 hrs in presence of minocycline by two fold broth microdilution checkerboard assay
[17] = system: Staphylococcus aureus; test: Antibacterial activity against methicilin-resistant Staphylococcus aureus assessed as inhibition of bacterial growth incubated for 18 hrs by two fold broth microdilution assay
[18] = system: Acinetobacter baumannii; test: Antibiotic adjuvant activity against multi-drug resistant Acinetobacter baumannii clinical isolate 110193 assessed as rifampicin MIC incubated for 18 hrs in presence of Rifampicin by two fold broth microdilution checkerboard assay
[19] = system: Acinetobacter baumannii; test: Antibiotic adjuvant activity against Acinetobacter baumannii ATCC 17978 assessed as fold potentiation incubated for 18 hrs in presence of rifampicin and CAMHB Mg2+ media by two fold broth microdilution checkerboard assay
[20] = system: Acinetobacter baumannii; test: Antibiotic adjuvant activity against Acinetobacter baumannii ATCC 17978 assessed as rifampicin MIC incubated for 18 hrs in presence of Rifampicin by two fold broth microdilution checkerboard assay
[21] = system: Escherichia coli; test: Antibiotic adjuvant activity against multi-drug resistant Escherichia coli clinical isolate EC107115 assessed as fractional inhibitory concentration index incubated for 18 hrs in presence of doxycycline by two fold broth microdilution checkerboard assay
[22] = system: Escherichia coli; test: Antibacterial activity against multi-drug resistant Escherichia coli clinical isolate 94474 assessed as inhibition of bacterial growth incubated for 18 hrs by two fold broth microdilution assay
[23] = system: Acinetobacter baumannii; test: Antibiotic adjuvant activity against Acinetobacter baumannii ATCC 17978 assessed as fold potentiation at 8 to 16 ug/ml incubated for 18 hrs in presence of rifampicin and FBS media by two fold broth microdilution checkerboard assay; conditions: dose 8-16 µg/ml
[24] = system: Escherichia coli; test: Antibiotic adjuvant activity against Escherichia coli ATCC 25922 assessed as fold increase in MIC incubated for 18 hrs in presence of rifampicin and CAMHB Mg2+ media by two fold broth microdilution checkerboard assay
[25] = system: Pseudomonas aeruginosa; test: Antibiotic adjuvant activity against multi-drug resistant Pseudomonas aeruginosa clinical isolate PA101243 assessed as minocycline MIC incubated for 18 hrs in presence of minocycline by two fold broth microdilution checkerboard assay
[26] = system: Pseudomonas aeruginosa; test: Antibiotic adjuvant activity against multi-drug resistant Pseudomonas aeruginosa clinical isolate 114228 assessed as inhibition of bacterial growth incubated for 18 hrs in presence of Rifampicin by two fold broth microdilution checkerboard assay
[27] = system: Pseudomonas aeruginosa; test: Antibiotic adjuvant activity against multi-drug resistant Pseudomonas aeruginosa clinical isolate PA264 assessed as rifampicin MIC incubated for 18 hrs in presence of Rifampicin by two fold broth microdilution checkerboard assay
[28] = system: Acinetobacter baumannii; test: Antibiotic adjuvant activity against Acinetobacter baumannii ATCC 17978 assessed as novobiocin MIC incubated for 18 hrs in presence of novobiocin by two fold broth microdilution checkerboard assay
[29] = system: Escherichia coli; test: Antibiotic adjuvant activity against multi-drug resistant Escherichia coli clinical isolate EC107115 assessed as inhibition of bacterial growth incubated for 18 hrs in presence of minocycline by two fold broth microdilution checkerboard assay
[30] = system: Pseudomonas aeruginosa; test: Antibiotic adjuvant activity against multi-drug resistant Pseudomonas aeruginosa clinical isolate PA259 assessed as fold potentiation incubated for 18 hrs in presence of minocycline by two fold broth microdilution checkerboard assay
[31] = system: Escherichia coli; test: Antibiotic adjuvant activity against multi-drug resistant Escherichia coli clinical isolate 107115 assessed as fractional inhibitory concentration index incubated for 18 hrs in presence of Rifampicin by two fold broth microdilution checkerboard assay
[32] = system: Pseudomonas aeruginosa; test: Antibiotic adjuvant activity against Pseudomonas aeruginosa PAO1 assessed as fold increase in MIC incubated for 18 hrs in presence of rifampicin and CAMHB Mg2+ media by two fold broth microdilution checkerboard assay
[33] = system: Escherichia coli; test: Antibiotic adjuvant activity against Escherichia coli ATCC 25922 assessed as rifampicin MIC incubated for 18 hrs in presence of Rifampicin by two fold broth microdilution checkerboard assay
[34] = system: Pseudomonas aeruginosa; test: Antibiotic adjuvant activity against multi-drug resistant Pseudomonas aeruginosa clinical isolate PA259 assessed as doxycycline MIC incubated for 18 hrs in presence of doxycycline by two fold broth microdilution checkerboard assay
[35] = system: Pseudomonas aeruginosa; test: Antibiotic adjuvant activity against multi-drug resistant Pseudomonas aeruginosa clinical isolate PA264 assessed as inhibition of bacterial growth incubated for 18 hrs in presence of doxycycline by two fold broth microdilution checkerboard assay
[36] = system: Acinetobacter baumannii; test: Antibiotic adjuvant activity against Acinetobacter baumannii ATCC 17978 assessed as fold potentiation incubated for 18 hrs in presence of vancomycin by two fold broth microdilution checkerboard assay

Question: Which “fractional inhibitory concentration index (FICI)” value [1] does the source give for `Cl.NC[C@H]1O[C@H](O[C@H]2[C@H](OCc3ccccc3)[C@@H](O[C@H]3O[C@H](COCc4ccccc4)[C@@H](OCc4ccccc4)[C@H](N)[C@H]3OCc3ccccc3)[C@H](N)C[C@@H]2N)[C@H](N)C[C@@H]1OCc1ccccc1` here?
Answer: The value was 1.063.

Question: What about the MIC [2] of the same molecule?
Answer: The MIC was 0.031 µg/mL.

Question: What about the MIC [3] of the same molecule?
Answer: Its MIC is 64 µg/mL.

Question: What about the MIC [4] of the same molecule?
Answer: The MIC was 32 µg/mL.

Question: What about the “fractional inhibitory concentration index (FICI)” value [5] of the same molecule?
Answer: The value was 1.063.

Question: What about the MIC [6] of the same molecule?
Answer: Its MIC is over 128 µg/mL.

Question: What about the “fractional inhibitory concentration index (FICI)” value [7] of the same molecule?
Answer: Its value is 0.252.

Question: And the “fold change (FC)” value [8]?
Answer: The value was 256.

Question: And the “fold change (FC)” value [9]?
Answer: The value was 1.

Question: What about the MIC [10] of the same molecule?
Answer: The MIC was 8 µg/mL.

Question: What about the MIC [11] of the same molecule?
Answer: The MIC was 64 µg/mL.

Question: What about the fold change (FC) [12] of the same molecule?
Answer: Its fold change (FC) is 1.

Question: What about the “fold change (FC)” value [13] of the same molecule?
Answer: The value was 64.

Question: What about the “fractional inhibitory concentration index (FICI)” value [14] of the same molecule?
Answer: Its value is 1.063.

Question: What about the MIC [15] of the same molecule?
Answer: Its MIC is 1 µg/mL.

Question: And the “fractional inhibitory concentration index (FICI)” value [16]?
Answer: Its value is 0.563.

Question: What about the MIC [17] of the same molecule?
Answer: The MIC was 16 µg/mL.

Question: And the MIC [18]?
Answer: Its MIC is 0.004 µg/mL.

Question: What about the fold change (FC) [19] of the same molecule?
Answer: The fold change (FC) was 16.

Question: And the MIC [20]?
Answer: Its MIC is 0.004 µg/mL.

Question: And the “fractional inhibitory concentration index (FICI)” value [21]?
Answer: The value was 0.313.

Question: And the MIC [22]?
Answer: The MIC was 32 µg/mL.

Question: What about the “fold change (FC)” value [23] of the same molecule?
Answer: The value was 4.

Question: What about the “fold change (FC)” value [24] of the same molecule?
Answer: Its value is “>=2”.

Question: And the MIC [25]?
Answer: Its MIC is 64 µg/mL.

Question: What about the MIC [26] of the same molecule?
Answer: The MIC was 8 µg/mL.

Question: And the MIC [27]?
Answer: The MIC was 16 µg/mL.

Question: And the MIC [28]?
Answer: Its MIC is 0.5 µg/mL.

Question: And the MIC [29]?
Answer: Its MIC is 8 µg/mL.

Question: What about the “fold change (FC)” value [30] of the same molecule?
Answer: The value was 1.

Question: And the “fractional inhibitory concentration index (FICI)” value [31]?
Answer: The value was 0.063.

Question: And the “fold change (FC)” value [32]?
Answer: The value was “>=2”.

Question: And the MIC [33]?
Answer: Its MIC is 0.008 µg/mL.

Question: And the MIC [34]?
Answer: The MIC was 256 µg/mL.

Question: And the MIC [35]?
Answer: The MIC was 8 µg/mL.

Question: What about the “fold change (FC)” value [36] of the same molecule?
Answer: Its value is 8.

Source: ChEMBL document CHEMBL5335843, “Application of tobramycin benzyl ether as an antibiotic adjuvant capable of sensitizing multidrug-resistant Gram-negative bacteria to rifampicin” (2024)
